ChEMBL document CHEMBL1158946, “Sesquiterpenoids from Brachylaena hutchinsii” (1991)
Values after ≈ are worked out from the molar mass of the structure shown.

Assays:
[1] = test system: Corynebacterium ammoniagenes; test: Antimicrobial activity against Brevibacterium ammoniagenes ATCC 6872 after 48 hrs by twofold serial broth dilution method; assay type: functional; conditions: ATCC 6872, 48 h
[2] = test system: Streptococcus mutans; test: Antimicrobial activity against Streptococcus mutans ATCC 25175 after 48 hrs by twofold serial broth dilution method; assay type: functional; conditions: ATCC 25175, 48 h

Compound	MIC [1]	MIC [2]
CC(C)[C@@H]1CCC2(C)C3C(CO)=CC[C@@H]2[C@H]31 [YLANGENOL]	25 µg/mL (≈ 0.113 mM)	25 µg/mL (≈ 0.113 mM)
CC(C)[C@@H]1C(=O)CC2(C)C3C(CO)=CC[C@@H]2[C@H]31	> 800 µg/mL	> 800 µg/mL
CC(C)[C@H]1C(=O)CC2(C)C3C(C=O)=CC[C@@H]2[C@H]31	800 µg/mL (≈ 3.44 mM)	800 µg/mL (≈ 3.44 mM)
CC(C)[C@@H]1C(=O)CC2(C)C3C(C=O)=CC[C@@H]2[C@H]31	800 µg/mL (≈ 3.44 mM)	800 µg/mL (≈ 3.44 mM)
CC(C)[C@H]1C(=O)C[C@@]2(C)[C@@H]3C(CO)=CC[C@H]2[C@H]13	> 800 µg/mL	> 800 µg/mL
